Measurements published in paper PMC8522722, “Safety and Pharmacokinetics in Human Volunteers of Taniborbactam (VNRX-5133), a Novel Intravenous β-Lactamase Inhibitor” (Antimicrobial Agents and Chemotherapy, 2021).

Columns and labels:
[1] = Multiple-ascending-dose (MAD) pharmacokinetics in plasma and urine, healthy adult volunteers; format: in vivo, human; settings: for AUCtau / Cmax / CLR,SS / CLSS / Vz / t1/2 / Ae / Fe: mean (%CV); for Tmax: median (range); for t1/2: terminal elimination; for Ae / Fe: urine through the dosing interval (8 h); for AUCtau mean ratio, last dose compared to first dose: day 10 vs day 1
Procedure: (§1) Eligible subjects were randomized to receive either taniborbactam or placebo in a 3:1 ratio within dose cohorts in both the SAD and MAD parts of the study. Each dose cohort in the SAD part of the study enrolled 8 subjects, and each dose cohort in the MAD part of the study enrolled 12 subjects. In the SAD part, subjects received 62.5, 125, 250, 500, 1,000, or 1,500 mg taniborbactam as a 2-h intravenous (i.v.) infusion. In the MAD part, subjects received 2-h intravenous i.v. infusions of 250, 500, or 750 mg taniborbactam q8h over 10 days, ending after a final morning dose on day 10 (total of 28 doses).
Blood samples for assay of taniborbactam in plasma were collected predose and at 1, 2, 2.25, 2.5, 2.75, 3, 4, 6, 8, 12, 26, and 50 h after the start of drug infusion in the SAD part. For the MAD part, blood samples to determine taniborbactam plasma concentrations were collected predose and at 1, 2, 2.25, 2.5, 2.75, 3, 4, 6, and 8 h following the first dose (day 1) and predose and at 1, 2, 2.25, 2.5, 2.75, 3, 4, 6, 10, 14, and 26 h following the last dose (day 10). Urine was collected predose and at intervals of 0 to 4, 4 to 8, 8 to 24, and 24 to 48 h after the start of the infusion in the SAD part for the higher-dose groups (500 to 1,500 mg taniborbactam). For the MAD part, urine was collected through the dosing interval following the last dose using collection intervals of 0 to 4 and 4 to 8 h after the start of the infusion. At the end of each urine collection interval, the volume of each urine collection was recorded and a sample was taken.
Plasma and urine samples were assayed for taniborbactam and screened for possible metabolites. Human dipotassium ethylenediaminetetraacetic acid (K2EDTA) plasma samples were processed using protein precipitation and assayed using ultra-high-performance liquid chromatography with tandem mass spectrometric detection (LC-MS/MS). Both low- and high-range methods were developed and validated for plasma samples, with calibration ranges of 5 to 5,000 ng/ml and 100 to 100,000 ng/ml, respectively. Acidified urine samples were processed using solid-phase extraction and assayed using a validated LC-MS/MS method with a calibration range of 5.0 to 5,000 ng/ml. For both matrices, separation was accomplished using a Waters Acquity HSS T3 column (Milford, MA) at 50°C, and gradient elution using 10 mM ammonium formate with 1% formic acid as mobile phase A and 50:50:1 acetonitrile:methanol:formic acid (vol/vol/vol) as mobile phase B. A triple quadrupole mass spectrometer (API Triple Quad 5500; AB Sciex, Framingham, MA) equipped with a turbo-ion spray set was used for detection in positive ion mode, and quantification was based on multiple reaction monitoring. The internal standard used in the assays was D4-taniborbactam.
Individual subject plasma and urine taniborbactam pharmacokinetic parameters were evaluated using noncompartmental analysis methods (Phoenix WinNonlin, Certara, Princeton, NJ). Single-dose pharmacokinetic parameters were determined in the SAD part, and both single-dose (day 1) and multiple-dose (day 10) pharmacokinetic parameters were determined in the MAD part. Estimated pharmacokinetic parameters included Cmax, time to Cmax (Tmax), AUCtau, AUC0–inf, t1/2, CL, VZ, Ae, Fe, and CLR. The actual sample times were used to calculate the pharmacokinetic parameters. Calculation of λZ was based on best fit of concentrations in the observed terminal elimination phase of a profile, and statistical inclusion of any parameter based on λZ required the goodness of fit statistic (R^2) to be greater than 0.8. Pharmacokinetic data were summarized using descriptive statistics by treatment. Dose proportionality based on Cmax and AUC was determined using linear regression to calculate the slope and 90% CI and observing whether a slope of 1 was included in the confidence interval. The dose proportionality analysis included subject body weight as a covariate in the analysis.

[2] = parameters: species or system human; settings: in vivo
Procedure: as §1
Safety was assessed based on the occurrence of adverse events and evaluation of laboratory tests (chemistry, hematology, urinalysis), physical examination, vital signs, and 12-lead electrocardiograms (ECGs) that were performed throughout the study. Safety was followed through 7 days postdose in the SAD part and followed through 7 days post-last dose in the MAD part.

[3] = Cardiodynamic ECG assessment and concentration-QT effect model (SAD part); format: in vivo, human
Procedure: ECG and pharmacokinetic data from the SAD part of the study were used to construct a concentration-QT effect model to assess potential QT effects. The primary cardiodynamic safety parameter was the corrected QT interval by Fredericia (QTcF). The potential impact of taniborbactam on other ECG intervals and T-wave morphology was also assessed. The ECG monitoring in the study was intensive, with continuous Holter 12-lead ECGs recorded on day 1. ECG data used in the modeling consisted of extracted replicates at time points that matched the pharmacokinetic data. The concentration-QT effect model included the entire single-dose range of between 62.5 mg and 1,500 mg taniborbactam.

[4] = test system: Pseudomonas aeruginosa isolates; parameters: method as in ref 13, 14 = [13]; 13 Vidales A , Hackel M , Wise M , Sahm D . 2020 . Antimicrobial activity of cefepime in combination with taniborbactam (formerly VNRX-5133) against clinical isolates of Enterobacterales collected fro || [14]; 14 Kalamatas J , Hackel M , Wise M , Sahm D . 2020 . Antimicrobial activity of cefepime in combination with taniborbactam (formerly VNRX-5133) against a 2018–2019 surveillance collection of Pseudomona; settings: cited from earlier work

In the case of `NCCN[C@H]1CC[C@H](CC(=O)N[C@H]2Cc3cccc(C(=O)O)c3OB2O)CC1` [Taniborbactam], the AUCtau ([1]; 250 mg q8h, day 1) is reported as 34,447 (17.2) h · ng/ml, the Cmax ([1]; 250 mg q8h, day 1) is reported as 10,544 (18.3) ng/ml and the Tmax ([1]; 250 mg q8h, day 1) is reported as 2.0 (2.0, 2.1) h. The AUCtau ([1]; 250 mg q8h, day 10) was 41,563 (15.1) h · ng/ml, the “CLR,SS” value ([1]; 250 mg q8h, day 10) was 5.2 (17.3) liters/h and the CLSS ([1]; 250 mg q8h, day 10) was 6.2 (15.9) liters/h. For the same compound, the Cmax ([1]; 250 mg q8h, day 10) was 11,188 (16.5) ng/ml, the Vz ([1]; 250 mg q8h, day 10) was 36.0 (28.3) liters and the Tmax ([1]; 250 mg q8h, day 10) was 2.0 (2.0, 2.1) h. The t1/2 ([1]; 250 mg q8h, day 10) was 4.1 (29.3) h, the Ae ([1]; 250 mg q8h, day 10) was 211.0 (11.8) mg and the Fe ([1]; 250 mg q8h, day 10) was 84.4 (11.8) %. For the same compound, the Fe ([1]; 250 mg q8h, day 10, listed as taniborbactam) was 84.4%, the “AUCtau mean ratio, last dose compared to first dose” value (“AUCtau mean ratio, last dose” for short) ([1]; 250 mg q8h) was 1.21 and the AUCtau ([1]; 500 mg q8h, day 1) was 81,890 (14.7) h · ng/ml. For the same compound, the Cmax ([1]; 500 mg q8h, day 1) was 25,778 (15.2) ng/ml, the Tmax ([1]; 500 mg q8h, day 1) was 2.0 (2.0, 2.1) h and the AUCtau ([1]; 500 mg q8h, day 10) was 89,103 (13.8) h · ng/ml. For the same compound, the “CLR,SS” value ([1]; 500 mg q8h, day 10) was 5.3 (14.2) liters/h, the CLSS ([1]; 500 mg q8h, day 10) was 5.7 (12.6) liters/h and the Cmax ([1]; 500 mg q8h, day 10) was 26,533 (13.0) ng/ml. For the same compound, the Vz ([1]; 500 mg q8h, day 10) was 39.8 (14.3) liters, the Tmax ([1]; 500 mg q8h, day 10) was 2.0 (2.0, 2.3) h and the t1/2 ([1]; 500 mg q8h, day 10) was 4.9 (13.3) h. The Ae ([1]; 500 mg q8h, day 10) was 462.2 (10.2) mg, the Fe ([1]; 500 mg q8h, day 10) was 92.4 (10.2) % and the Fe ([1]; 500 mg q8h, day 10, listed as taniborbactam) was 92.4%. For the same compound, the “AUCtau mean ratio, last dose” value ([1]; 500 mg q8h) was 1.09, the AUCtau ([1]; 750 mg q8h, day 1) was 119,140 (18.0) h · ng/ml and the Cmax ([1]; 750 mg q8h, day 1) was 39,122 (23.7) ng/ml. For the same compound, the Tmax ([1]; 750 mg q8h, day 1) was 2.0 (2.0, 2.3) h, the AUCtau ([1]; 750 mg q8h, day 10) was 139,518 (21.6) h · ng/ml and the “CLR,SS” value ([1]; 750 mg q8h, day 10) was 5.2 (28.6) liters/h. For the same compound, the CLSS ([1]; 750 mg q8h, day 10) was 5.6 (21.1) liters/h, the Cmax ([1]; 750 mg q8h, day 10) was 38,778 (18.2) ng/ml and the Vz ([1]; 750 mg q8h, day 10) was 37.4 (19.9) liters. For the same compound, the Tmax ([1]; 750 mg q8h, day 10) was 2.0 (2.0, 2.3) h, the t1/2 ([1]; 750 mg q8h, day 10) was 4.7 (15.4) h and the Ae ([1]; 750 mg q8h, day 10) was 692.2 (21.7) mg. The Fe ([1]; 750 mg q8h, day 10) was 92.3 (21.7) %, the Fe ([1]; 750 mg q8h, day 10, listed as taniborbactam) was 92.3% and the “AUCtau mean ratio, last dose” value ([1]; 750 mg q8h) was 1.17. For the same compound, the “administered dose recovered in urine as intact drug” value ([1]; at steady state) was “approximately 90%”, the “subjects with adverse events considered by the investigator to be treatment related” value [2] was 4 subjects and the “QT effect (ΔΔQTcF) from exposure-response analysis” value ([3]; plasma concentrations up to 80,000 ng/ml (Cmax of 1,500 mg dose)) was no more than 10 ms. The “effect on heart rate, T-wave morphology, PR and QRS interval” value ([3]; single doses 62.5 to 1,500 mg) was “did not have an effect” and the “potentiation of cefepime activity as measured by the MIC90” value [4] was 4 fold.
